Source: US11084808B2, “Oxopicolinamide derivative, preparation method therefor and pharmaceutical use thereof” (Jiangsu Hengrui Medicine Co., Ltd., priority 2016, dated 2021)
Values belong to the compound of their own block, whether it stands above or below them.

How the values were obtained:
[1] = Pharmacokinetics assay in rats after intragastrical administration; format: in vivo, Sprague-Dawley (SD) rats; details: intragastric, 2 mg/kg
Description: Test Example 3. Pharmacokinetics Assay of the Compounds of the Present Invention
Rats were used as test animals. […] The pharmacokinetic behavior of the compounds of the present invention was studied and evaluated in rats.
56 healthy adult Sprague-Dawley (SD) rats, half male and half female, were purchased from SINO-BRITSH SIPPR/BK LAB. ANIMAL LTD., CO, with License No.: SCXK (Shanghai) 2008-0016.
2.3 Preparation of the Test Compounds
A certain amount of the test compound was weighed, and added with 5% by volume of DMSO, 5% by volume of Tween 80 and 90% normal saline to prepare a 0.2 mg/mL colorless, clear and transparent solution.
After an overnight fast, SD rats were intragastrically administered at a dose of 2.0 mg/kg and an administration volume of 10.0 mL/kg.
Example 111, Example 114, Example 160. Example 171 and Comparative Example 1. Blood (0.2 mL) was taken from the orbital sinus before administration and at 0.5, 1.0, 2.0, 4.0, 6.0, 8.0, 11.0 and 24.0 hours after administration. […]
The content of the test compound in the plasma of rats after intragastric administration of different concentrations of the drug was determined: 25 μL of rat plasma at each time after administration was taken and added with 30 μL (100 ng/mL) of the internal standard solution of camptothecin and 200 μL of acetonitrile, shaken vertically for 5 minutes, and centrifuged for 10 minutes (4000 rpm). […]

human blood = experiment: In vitro anticoagulant effect on human blood (APTT, CT2); format: biochemical; details: for CT2 (compound concentration doubling APTT): human plasma
Protocol: Test Example 2: Determination of In Vitro Anticoagulant Effect of the Compounds of the Present Invention on Human Blood
1. Experimental Materials
Plasma: Human blood was collected in blood collection tubes containing no anticoagulant, and then 3.8% sodium citrate (volume ratio 1:9) was added. The tubes were centrifuged at 2500 rpm for 10 minutes at room temperature, and then the plasma was collected and stored at −80° C.:
Reagents: APTT reagent (Activated partial thromboplastin time assay kit, SIEMENS, Art. No. B4218-1), calcium chloride solution;
Instrument: Coagulation instrument (SYSMEX, CA-500).
The divided plasma was melted at room temperature and mixed well. 10000 μM the test compound dissolved in 100% DMSO was diluted to 3000, 300, 200, 150, 75, 30, 10, 3, 0.3 μM with 100% DMSO, and the blank was 100% DMSO. The reagent, plasma, and compound were placed in corresponding positions in the coagulation instrument, and APTT detection of the compound was carried out.
Curve fitting was carried out by graphpad and CT2 was calculated, i.e., the concentration of the compound corresponding to 2 times the APTT of the blank control.

[2] = Table 2, concentration of the compound corresponding to 2 times the APTT of the blank control

AUC difference versus Comparative Example 1 [1]: 7.5 times | Cmax difference versus Comparative Example 1 [1]: 6.9 times
Compound: COc1cn([C@@H](Cc2cccnc2)C(=O)Nc2ccc(C(=O)O)cc2)c(=O)cc1-c1cc(Cl)ccc1C(C)=O [Example 84, (S)-4-(2-(4-(2-acetyl-5-chlorophenyl)-5-methoxy-2-oxopyridin-1(2H)-yl)-3-(pyridin-3-yl)propanamido)benzoic acid]

Compound: COc1cn(C(Cc2ccn(C)n2)C(=O)Nc2ccc(C(=O)O)cc2)c(=O)cc1-c1cc(Cl)ccc1C(C)=O (centres unmarked) [Example 100, 4-(2-(4-(2-acetyl-5-chlorophenyl)-5-methoxy-2-oxopyridin-(2H)-yl)-3-(1-methyl-1H-pyrazol-3-yl)propanamido)benzoic acid]
CT2 (compound concentration doubling APTT) (human blood; [2]): 3.3 µM

Compound: COc1cn([C@H](Cc2cnn(C)c2)C(=O)Nc2ccc(C(=O)O)cc2)c(=O)cc1-c1cc(Cl)ccc1C(C)=O [Example 104, (R)-4-(2-(4-(2-acetyl-5-chlorophenyl)-5-methoxy-2-oxopyridin-1(2H)-yl)-3-(1-methyl-1H-pyrazol-4-yl)propanamido)benzoic acid]
CT2 (compound concentration doubling APTT) (human blood; [2]): >10000 µM

Compound: COc1cn([C@@H](Cc2cnn(C)c2)C(=O)Nc2ccc(C(=O)O)cc2)c(=O)cc1-c1cc(Cl)ccc1C(C)=O [Example 105, (S)-4-(2-(4-(2-acetyl-5-chlorophenyl)-5-methoxy-2-oxopyridin-1(2H)-yl)-3-(1-methyl-1H-pyrazol-4-yl)propanamido)benzoic acid]
CT2 (compound concentration doubling APTT) (human blood; [2]): 6.9 µM

Compound: CCC(=O)c1ccc(Cl)cc1-c1cc(=O)n([C@@H](CCOC(C)(C)C)C(=O)Nc2ccc(C(=O)O)cc2)cc1OC [Example 108, (S)-4-(4-(tert-butoxy)-2-(4-(5-chloro-2-propionylphenyl)-5-methoxy-2-oxopyridin-1(2H)-yl)butanamido)benzoic acid]
CT2 (compound concentration doubling APTT) (human blood; [2]): 1.4 µM

Compound: CCC(=O)c1ccc(Cl)cc1-c1cc(=O)n([C@H](CCOC(C)(C)C)C(=O)Nc2ccc(C(=O)O)cc2)cc1OC [Example 109, (R)-4-(4-(tert-butoxy)-2-(4-(5-chloro-2-propionylphenyl)-5-methoxy-2-oxopyridin-1(2H)-yl)butanamido)benzoic acid]
CT2 (compound concentration doubling APTT) (human blood; [2]): >10000 µM

Compound: COc1cn([C@@H](CCOC(C)(C)C)C(=O)Nc2ccc(C(=O)O)cc2)c(=O)cc1-c1cc(Cl)ccc1C(C)=O [Example 111, (S)-4-(2-(4-(2-acetyl-5-chlorophenyl)-5-methoxy-2-oxopyridin-1(2H)-yl)-4-(tert-butoxy)butanamido)benzoic acid]
CT2 (compound concentration doubling APTT) (human blood; [2]): 3.2 µM

Compound: COc1cn([C@H](CCOC(C)(C)C)C(=O)Nc2ccc(C(=O)O)cc2)c(=O)cc1-c1cc(Cl)ccc1C(C)=O [Example 112, (R)-4-(2-(4-(2-acetyl-5-chlorophenyl)-5-methoxy-2-oxopyridin-(2H)-yl)-4-(tert-butoxy)butanamido)benzoic acid]
CT2 (compound concentration doubling APTT) (human blood; [2]): >10000 µM

Compound: CCC(=O)c1ccc(Cl)cc1-c1cc(=O)n([C@@H](CCOC(C)(C)C)C(=O)Nc2ccc3nccnc3c2)cc1OC [Example 114, (S)-4-(tert-butoxy)-2-(4-(5-chloro-2-propionylphenyl)-5-methoxy-2-oxopyridin-1(2H)-yl)-N-(quinoxalin-6-yl)butanamide]
CT2 (compound concentration doubling APTT) (human blood; [2]): 3.6 µM | CT2 (compound concentration doubling APTT) (human blood; Table 3 comparison with similar compounds in the published patents): 2.9 µM | CT2 value ratio of Example 114 and comparative Example 2 (human blood; from Table 3): 4.5 times

Compound: COc1cn([C@H](CC2CCC2)C(=O)Nc2ccc(C(=O)O)cc2)c(=O)cc1-c1c(C(C)=O)ccc(Cl)c1F [Example 160, (R)-4-(2-(4-(6-acetyl-3-chloro-2-fluorophenyl)-5-methoxy-2-oxopyridin-1(2H)-yl)-3-cyclobutylpropanamido)benzoic acid]
CT2 (compound concentration doubling APTT) (human blood; [2]): 3.8 µM

Compound: COc1cn([C@H](CCOC2CCC2)C(=O)Nc2ccc(C(=O)O)cc2)c(=O)cc1-c1cc(Cl)ccc1C(C)=O [Example 163, (R)-4-(2-(4-(2-acetyl-5-chlorophenyl)-5-methoxy-2-oxopyridin-1(2H)-yl)-4-cyclobutoxybutanamido)benzoic acid]
CT2 (compound concentration doubling APTT) (human blood; [2]): >10000 µM

Compound: COc1cn([C@@H](CCOC2CCC2)C(=O)Nc2ccc(C(=O)O)cc2)c(=O)cc1-c1cc(Cl)ccc1C(C)=O [Example 164, (S)-4-(2-(4-(2-acetyl-5-chlorophenyl)-5-methoxy-2-oxopyridin-1(2H)-yl)-4-cyclobutoxybutanamido)benzoic acid]
CT2 (compound concentration doubling APTT) (human blood; [2]): 6.4 µM

Compound: CCC(=O)c1ccc(Cl)cc1-c1cc(=O)n(C(CC2CCCCO2)C(=O)Nc2ccc(C(=O)O)cc2)cc1OC (centres unmarked) [Example 166]
CT2 (compound concentration doubling APTT) (human blood; [2]): 7.2 µM

Compound: [2H]C([2H])([2H])Oc1cn([C@@H](CCOC(C)(C)C)C(=O)Nc2ccc(C(=O)O)cc2)c(=O)cc1-c1cc(Cl)ccc1C(=O)CC [Example 177, 4-[[(2S)-4-tert-butoxy-2-[4-(5-chloro-2-propionyl-phenyl)-2-oxo-5-(trideuteromethoxy)-1-pyridyl]butyryl]amino]benzoic acid]
CT2 (compound concentration doubling APTT) (human blood; [2]): 1.5 µM

Compound: [2H]C([2H])([2H])Oc1cn([C@H](CCOC(C)(C)C)C(=O)Nc2ccc(C(=O)O)cc2)c(=O)cc1-c1cc(Cl)ccc1C(=O)CC [Example 178, 4-[[(2R)-4-tert-butoxy-2-[4-(5-chloro-2-propionyl-phenyl)-2-oxo-5-(trideuteromethoxy)-1-pyridyl]butyryl]amino]benzoic acid]
CT2 (compound concentration doubling APTT) (human blood; [2]): >10000 µM

Compound: [2H]C([2H])([2H])Oc1cn([C@@H](Cc2ccccc2)C(=O)Nc2ccc(C(=O)O)cc2)c(=O)cc1-c1cc(Cl)ccc1C(C)=O [Example 179, 4-[[(2S)-2-[4-(2-acetyl-5-chloro-phenyl)-2-oxo-5-(trideuteromethoxy)-1-pyridyl]-3-phenyl-propionyl]amino]benzoic acid]
CT2 (compound concentration doubling APTT) (human blood; [2]): 3.3 µM

Compound: [2H]C([2H])([2H])Oc1cn([C@H](Cc2ccccc2)C(=O)Nc2ccc(C(=O)O)cc2)c(=O)cc1-c1cc(Cl)ccc1C(C)=O [Example 180, 4-[[(2R)-2-[4-(2-acetyl-5-chloro-phenyl)-2-oxo-5-(trideuteromethoxy)-1-pyridyl]-3-phenyl-propionyl]amino]benzoic acid]
CT2 (compound concentration doubling APTT) (human blood; [2]): >10000 µM

Compound: [2H]c1c([2H])c([2H])c(C([2H])([2H])[C@@H](C(=O)Nc2ccc(C(=O)O)cc2)n2cc(OC)c(-c3cc(Cl)ccc3C(C)=O)cc2=O)c([2H])c1[2H] [Example 181, 4-[[(2S)-2-[4-(2-acetyl-5-chloro-phenyl)-5-methoxy-2-oxo-1-pyridyl]-3,3-dideutero-3-(2,3,4,5,6-pentadeuterophenyl)propionyl]amino]benzoic acid]
CT2 (compound concentration doubling APTT) (human blood; [2]): 2.3 µM

Compound: [2H]C([2H])([2H])C(=O)c1ccc(Cl)cc1-c1cc(=O)n([C@@H](Cc2ccccc2)C(=O)Nc2ccc(C(=O)O)cc2)cc1OC [Example 183, 4-[[(2S)-2-[4-[5-chloro-2-(2,2,2-trideuteroacetyl)phenyl]-5-methoxy-2-oxo-1-pyridyl]-3-phenyl-propionyl]amino]benzoic acid]
CT2 (compound concentration doubling APTT) (human blood; [2]): 2.6 µM

Compound: [2H]C([2H])([2H])C(=O)c1ccc(Cl)cc1-c1cc(=O)n([C@H](Cc2ccccc2)C(=O)Nc2ccc(C(=O)O)cc2)cc1OC [Example 184, 4-[[(2R)-2-[4-[5-chloro-2-(2,2,2-trideuteroacetyl)phenyl]-5-methoxy-2-oxo-1-pyridyl]-3-phenyl-propionyl]amino]benzoic acid]
CT2 (compound concentration doubling APTT) (human blood; [2]): >10000 µM
